Results on 38 molecules are retold here after US20240083853A1, “HSD17B13 INHIBITORS AND USES THEREOF” (FL2022-001, Inc., priority 2020, published 2024).

Molecules are shown by their SMILES.

The target in this test is T1, Recombinant human HSD17B13 enzyme (Homo sapiens, UniProt Q7Z5P4).
T1 sequence (Q7Z5P4 20-300): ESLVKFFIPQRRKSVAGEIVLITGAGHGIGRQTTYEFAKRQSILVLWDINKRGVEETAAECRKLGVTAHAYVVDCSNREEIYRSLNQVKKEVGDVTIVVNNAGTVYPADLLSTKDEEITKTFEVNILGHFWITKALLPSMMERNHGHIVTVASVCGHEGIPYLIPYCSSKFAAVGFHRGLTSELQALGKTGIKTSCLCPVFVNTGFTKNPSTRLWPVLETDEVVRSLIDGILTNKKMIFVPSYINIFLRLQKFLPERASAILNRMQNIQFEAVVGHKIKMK
Briefly: HSD17b13 NAD(P)H-Glo biochemical assay. The settings on record: for IC50: 50 uM estradiol, 1 mM NAD+, NAD(P)H-Glo luminescence, read-out: HSD17β13 IC50. Put shortly: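 Luminescent NAD(P)H-Glo read-out, taken after 1 hour at RT, measured cofactor reduction. Substrate and cofactor were estradiol at 50 uM and NAD+ at 1 mM final, reacted with the recombinant human enzyme for 3 hours at 37° C in 20 mM Tris pH7.4, 0.002% Tween-20, 0.02% BSA. Compound was pre-incubated with enzyme for 20 minutes at RT.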

In the case of `CS(=O)(=O)N1CCN(c2ncc(-n3ncc4cc(F)c(O)c(F)c43)cn2)CC1` [Compound 7, 5,7-Difluoro-1-(2-(4-(methylsulfonyl)piperazin-1-yl)pyrimidin-5-yl)-1H-indazol-6-ol], the half-inhibitory concentration (IC50) – broadly, the concentration that inhibits the measured activity by half – was 100 to 1000 nM. The same measure, in the same setting: under `CC1(C)CCN(c2ccc(-n3ncc4cc(F)c(O)c(F)c43)cc2)CC1` [Compound 23, 1-(4-(4,4-Dimethylpiperidin-1-yl)phenyl)-5,7-difluoro-1H-indazol-6-ol] stands less than 100 nM.

On to `Oc1c(F)cc2cnn(-c3ccc(N4CCC5(CC4)COC5)cc3)c2c1F` [Compound 23.25, 1-(4-(2-Oxa-7-azaspiro[3.5]nonan-7-yl)phenyl)-5,7-difluoro-1H-indazol-6-ol], for which the IC50 is less than 100 nM. On the same count and under the same terms, as for `CC1(C(F)(F)F)CCN(c2ccc(-n3ncc4cc(F)c(O)c(F)c43)cc2)CC1` [Compound 24.8, 5,7-Difluoro-1-(4-(4-methyl-4-(trifluoromethyl)piperidin-1-yl)phenyl)-1H-indazol-6-ol], the figure is less than 100 nM; as for `CCC1(CC)CCN(c2ccc(-n3ncc4cc(F)c(O)c(F)c43)cc2)CC1` [Compound 24.7, 1-(4-(4,4-Diethylpiperidin-1-yl)phenyl)-5,7-difluoro-1H-indazol-6-ol], less than 100 nM. The same measure, in the same setting: under `Cc1c(F)c(O)cc2c1cnn2-c1ccc(-c2cccc(O)c2)cc1` [Compound 4.2, 5-Fluoro-1-(3′-hydroxy-[1,1′-biphenyl]-4-yl)-4-methyl-1H-indazol-6-ol] stands 100 to 1000 nM; under `CC(C)C1CCN(c2ccc(-n3ncc4cc(F)c(O)c(F)c43)cc2)CC1` [Compound 20.9, 5,7-Difluoro-1-(4-(4-isopropylpiperidin-1-yl)phenyl)-1H-indazol-6-ol], less than 100 nM; under `CCS(=O)(=O)N1CCN(c2ccc(-n3ncc4cc(F)c(O)c(F)c43)cc2)CC1` [Compound 23.8, 1-(4-(4-(Ethylsulfonyl)piperazin-1-yl)phenyl)-5,7-difluoro-1H-indazol-6-ol], 100 to 1000 nM. As to `CC1(C)CCN(c2ccc(-n3ccc4cc(F)c(O)c(F)c43)cc2)CC1` [Compound 6.2, 1-(4-(4,4-Dimethylpiperidin-1-yl)phenyl)-5,7-difluoro-1H-indol-6-ol], the IC50 lay in the range of 100 to 1000 nM. As to `CC1(C)CCN(c2ccc(-n3c(=O)n(CO)c4cc(F)c(O)c(F)c43)cc2)CC1` [Compound 21.12, 3-(4-(4,4-Dimethylpiperidin-1-yl)phenyl)-4,6-difluoro-5-hydroxy-1-(hydroxymethyl)-1H-benzo[d]imidazol-2(3H)-one], the IC50 is less than 100 nM.

In the case of `NS(=O)(=O)c1cccc(-c2ccc(-n3ncc4cc(F)c(O)cc43)cc2)c1` [Compound 13.37, 4′-(5-Fluoro-6-hydroxy-1H-indazol-1-yl)-[1,1′-biphenyl]-3-sulfonamide], the IC50 is 100 to 1000 nM.

In the case of `CC1(CO)CN(c2ccc(-n3ncc4cc(F)c(O)c(F)c43)cc2)C1` [Compound 20.16, 5,7-Difluoro-1-(4-(3-(hydroxymethyl)-3-methylazetidin-1-yl)phenyl)-1H-indazol-6-ol], the IC50 lay within 100 to 1000 nM.

For the molecule `CS(=O)(=O)N1CCC(c2ccc(-n3nnc4cc(F)c(O)c(F)c43)cc2)CC1` [Compound 27.9, 5,7-Difluoro-1-(4-(1-(methylsulfonyl)piperidin-4-yl)phenyl)-1H-benzo[d][1,2,3]triazol-6-ol], the IC50 was less than 100 nM. On to `Oc1ccc(-c2ccc(-n3ncc4cc(F)c(O)cc43)cc2)cc1` [Compound 2.1, 5-Fluoro-1-(4′-hydroxy-[1,1′-biphenyl]-4-yl)-1H-indazol-6-ol], for which the 50% inhibitory concentration (IC50) fell in the range of 100 to 1000 nM. The same measure, in the same setting: under `Oc1ccc(-c2ccc(-n3ncc4cc(Cl)c(O)cc43)cc2)cc1` [Compound 2.5, 5-Chloro-1-(4′-hydroxy-[1,1′-biphenyl]-4-yl)-1H-indazol-6-ol] stands 100 to 1000 nM; under `Oc1c(F)cc2cnn(-c3ccc(N4CCCC4)cc3)c2c1F` [Compound 23.10, 5,7-Difluoro-1-(4-(pyrrolidin-1-yl)phenyl)-1H-indazol-6-ol], less than 100 nM; under `Oc1cccc(-c2ccc(-n3ncc4cc(F)c(O)c(Cl)c43)cc2)c1` [Compound 17, 7-Chloro-5-fluoro-1-(3′-hydroxy-[1,1′-biphenyl]-4-yl)-1H-indazol-6-ol], 100 to 1000 nM. As for `CS(=O)(=O)N1CCN(c2ccc(-n3nnc4cc(F)c(O)c(F)c43)cn2)CC1` [Compound 26.13, 5,7-Difluoro-1-(6-(4-(methylsulfonyl)piperazin-1-yl)pyridin-3-yl)-1H-benzo[d][1,2,3]triazol-6-ol], the concentration for half-maximal inhibition (IC50) lay in the range of 100 to 1000 nM. As to `Oc1cc2c(cnn2-c2ccc(Oc3ccccc3)cc2)cc1F` [Compound 2.3, 5-Fluoro-1-(4-phenoxyphenyl)-1H-indazol-6-o1], the IC50 was in the range of 100 to 1000 nM. `CS(=O)(=O)N1CCN(c2ccc(-n3ncc4cc(F)c(O)c(F)c43)cc2)CC1` [Compound 19, 5,7-Difluoro-1-(4-(4-(methylsulfonyl)piperazin-1-yl)phenyl)-1H-indazol-6-ol]: the IC50 is 100 to 1000 nM.

Turning to `CC1(C)CCN(c2ccc(-n3cnc4cc(F)c(O)c(F)c43)cc2)CC1` [Compound 21.5, 1-(4-(4,4-Dimethylpiperidin-1-yl)phenyl)-5,7-difluoro-1H-benzo[d]imidazol-6-ol], the IC50 is less than 100 nM. The same measure, in the same setting: under `CC1CN(c2ccc(-n3ncc4cc(F)c(O)c(F)c43)cc2)CC(C)S1(=O)=O` (centres unmarked) [Compound 32, 4-(4-(5,7-Difluoro-6-hydroxy-1H-indazol-1-yl)phenyl)-2,6-dimethylthiomorpholine 1,1-dioxide] stands 100 to 1000 nM. The same measure, in the same setting: under `CCC1(CC)CN(c2ccc(-n3ncc4cc(F)c(O)c(F)c43)cc2)C1` [Compound 24, 1-(4-(3,3-Diethylazetidin-1-yl)phenyl)-5,7-difluoro-1H-indazol-6-ol] stands less than 100 nM; under `CC1(C)CCN(c2cnc(-n3ncc4cc(F)c(O)c(F)c43)cn2)CC1` [Compound 26.6, 1-(5-(4,4-Dimethylpiperidin-1-yl)pyrazin-2-yl)-5,7-difluoro-1H-indazol-6-ol], less than 100 nM; under `Oc1c(F)cc2nnn(-c3ncc(N4CC5(CCOCC5)C4)cn3)c2c1F` [Compound 26.21, 1-(5-(7-Oxa-2-azaspiro[3.5]nonan-2-yl)pyrimidin-2-yl)-5,7-difluoro-1H-benzo[d][1,2,3]triazol-6-ol], 100 to 1000 nM.

Regarding `Oc1cc2c(nnn2-c2ccc(N3CC4(CCOCC4)C3)cc2)c(Cl)c1F` [Compound 40, 1-(4-(7-Oxa-2-azaspiro[3.5]nonan-2-yl)phenyl)-4-chloro-5-fluoro-1H-benzo[d][1,2,3]triazol-6-ol], the 50% inhibitory concentration (IC50) was less than 100 nM.

Take `Cc1c(O)c(F)cc2cnn(-c3ccc(-c4cccc(O)c4)cc3)c12` [Compound 4.3, 5-Fluoro-1-(3′-hydroxy-[1,1′-biphenyl]-4-yl)-7-methyl-1H-indazol-6-ol]: the half-maximal inhibitory concentration (IC50) was 100 to 1000 nM. Consider `Cc1nc2cc(F)c(O)c(F)c2n1-c1ccc(N2CCC(C)(C)CC2)cc1` [Compound 21.8, 1-(4-(4,4-Dimethylpiperidin-1-yl)phenyl)-5,7-difluoro-2-methyl-1H-benzo[d]imidazol-6-ol], for which, for the setting “3 h, at 10 uM compound, read-out: HSD17β13 % at 10 uM”, the inhibition at 10 µM came out at 35%. `CC1(C)CN(c2ccc(-n3ncc4cc(F)c(O)c(F)c43)cc2)CC(C)(C)O1` [Compound 20.12, 5,7-Difluoro-1-(4-(2,2,6,6-tetramethylmorpholino)phenyl)-1H-indazol-6-ol]: the IC50 is less than 100 nM. Regarding `CC1(C)CCN(c2cnc(-n3nnc4cc(F)c(O)c(F)c43)nc2)CC1` [Compound 26.20, 1-(5-(4,4-Dimethylpiperidin-1-yl)pyrimidin-2-yl)-5,7-difluoro-1H-benzo[d][1,2,3]triazol-6-ol], the IC50 is less than 100 nM.

On to `Oc1cc2c(cnn2-c2ccc(-c3ccccc3F)cc2)cc1F` [Compound 13.3, 5-Fluoro-1-(2′-fluoro-[1,1′-biphenyl]-4-yl)-1H-indazol-6-ol], for which the IC50 is 100 to 1000 nM. `CS(=O)(=O)N1CCC(c2ccc(-n3ncc4cc(F)c(O)c(F)c43)cc2)CC1` [Compound 27.7, 5,7-Difluoro-1-(4-(1-(methylsulfonyl)piperidin-4-yl)phenyl)-1H-indazol-6-ol]: the IC50 was less than 100 nM.

Turning to `CS(=O)(=O)N1CCN(c2cnc(-n3nnc4cc(F)c(O)c(F)c43)cn2)CC1` [Compound 26.19, 5,7-Difluoro-1-(5-(4-(methylsulfonyl)piperazin-1-yl)pyrazin-2-yl)-1H-benzo[d][1,2,3]triazol-6-ol], the IC50 fell in the range of 100 to 1000 nM. For `Oc1c(F)cc2cnn(-c3ccc(-c4ccncc4)cc3)c2c1F` [Compound 14.4, 5,7-Difluoro-1-(4-(pyridin-4-yl)phenyl)-1H-indazol-6-ol], the IC50 was less than 100 nM. In the case of `CC1(C)CCN(c2ccc(-n3nnc4cc(F)c(O)c(F)c43)nn2)CC1` [Compound 26.23, 1-(6-(4,4-Dimethylpiperidin-1-yl)pyridazin-3-yl)-5,7-difluoro-1H-benzo[d][1,2,3]triazol-6-ol], the IC50 was 100 to 1000 nM. For the molecule `Oc1c(F)cc2cnn(-c3ccc(-c4cn[nH]c4)cc3)c2c1F` [Compound 14.1, 1-(4-(1H-Pyrazol-4-yl)phenyl)-5,7-difluoro-1H-indazol-6-ol], the half-maximal inhibitory concentration (IC50) lay in the range of 100 to 1000 nM. For the molecule `Oc1cc2c(cnn2-c2ccc(Nc3ccccc3)cc2)cc1F` [Compound 3, 5-Fluoro-1-(4-(phenylamino)phenyl)-1H-indazol-6-ol], the concentration for half-maximal inhibition (IC50) was 100 to 1000 nM. Take `Oc1ccc(-c2ccc(-n3ncc4ccc(O)cc43)cc2)cc1` [Compound 1, 1-(4′-Hydroxy-[1,1′-biphenyl]-4-yl)-1H-indazol-6-ol]: the half-inhibitory concentration (IC50) was 100 to 1000 nM.
